# Measured values published in patent US10201536B2, “Methods and pharmaceutical compositions for the treatment of bacterial infections in patients suffering from cirrhosis” (INSERM (INSTITUT NATIONAL DE LA SANTE ET DE LA RECHERCHE …, priority 2015, dated 2019).
# Experiments:
# Gp91phox [1] = assay: Gp91phox expression by western-blot in neutrophils from cirrhotic patients; assay type: cell-based, human; conditions: patient neutrophils, 2.5 μg/ml, 30 min
# Experimental: (§1) FIG. 3. The TLR7/8 agonist CL097 stimulated Gp91phox RNA production and synthesis in neutrophils from patients with advanced alcohol cirrhosis. Neutrophils from cirrhotic patients were treated in the absence (buffer) or presence of CL097 (2.5 μg/ml) for 30 min at 37° C. and the amount of Gp91phox mRNA was quantified and expressed as percentage of control (Buffer) (Panel A, n=6, *: P<0.05). The expression of Gp91phox was determined by western-blot assays and expressed as percentage±SEM of that of neutrophils of healthy donors (Panel B, n=4, *: P<0.05).
# (§2) To determine whether this treatment improves NADPH oxidase activity, superoxyde production (02-°) was measured by the specific cytochrome C reduction assay, after cell stimulation with the bacterial peptide fMLP. […] Promisingly, these CL097 original properties were also observed in a model of ROS production in whole blood from patients (FIG. 5B).
# [2] = test system: neutrophils from patients with advanced alcoholic cirrhosis; assay: Superoxide production, cytochrome C reduction assay, patient neutrophils; assay type: cell-based, human; conditions: 2.5 μg/ml 15 min, then 1 μM fMLP
# Experimental: (§3) FIG. 4. The TLR7/8 agonist CL097 restored the production of superoxide in neutrophils from patients with advanced alcohol cirrhosis. Neutrophils from healthy donors and patients with advanced alcoholic cirrhosis were treated for 15 min with the TLR7/8 agonist (2.5 μg/ml), then with PBS or 1 μM fMLP. Results represent the mean of superoxide production±SEM expressed in nmole/10^6 cells (n=8, *: P <0.05).
# as §2
# E coli [3] = assay: Bactericidal activity of neutrophils from healthy volunteers against E coli; assay type: cell-based, human
# Experimental: (§4) FIG. 7. Impaired bactericidal activity of neutrophils from cirrhotic patients and beneficial effects of the TLR7/8 agonist CL097. (A) Neutrophils from healthy volunteers (Control) and cirrhotic patients were incubated with E coli for 5 min, then treated or not (Buffer) with fMLP (1 μM) for 25 min. (B, C): Neutrophils incubated with bacteria were treated without (PBS) and with CL097 (1 μg/ml) for 2 min before stimulation with fMLP for 23 min. Cells were lysed and the number of bacterial colony was determined and expressed as percentage of that of control resting cells (A, n=6), or % of that of resting cells (PBS) in both cell populations (B, C, n=6); *P<0.05 (Data published in Boussif A et al, J Hepatol. 2016 64:1041-8. doi: 10.1016/j.jhep.2015.12.005. Epub 2015 Dec. 21).
# (§5) Thus, TLR7/8 activation may provide beneficial effects on neutrophil host-defense activities in patients with cirrhosis.
# [4] = test system: neutrophils from healthy donors; assay: Superoxide production, cytochrome C reduction assay, healthy neutrophils; assay type: cell-based, human; conditions: 2.5 μg/ml 15 min, then 1 μM fMLP
# Experimental: as §3, §2
# Gp91phox mRNA = Gp91phox mRNA quantification in neutrophils from cirrhotic patients; assay type: cell-based, human; conditions: patient neutrophils, 2.5 μg/ml, 30 min
# Experimental: as §1, §2
# [5] = test system: whole blood from cirrhotic patients; assay: ROS production, luminol chemiluminescence, whole blood from cirrhotic patients; assay type: cell-based, human
# Experimental: (§6) FIG. 5. The TLR7/8 agonist CL097 restored the production of reactive oxygen species by purified neutrophils and in whole blood from patients. ROS production was measured by the highly sensitive luminol-enhanced chemiluminescence assay with purified neutrophils (0.5×10^6 cells/450μl Hanks Balanced salt solution, Panel A) and with whole blood (20 μl in 450 μl PBS containing 0.120 mM calcium, Panel B) from patients with advanced alcohol cirrhosis. Cells were treated for 15 min with the TLR7/8 agonist […], then with 1 μM fMLP (Panel A). Results represent the peak of chemiluminescence response expressed in cpm (mean±SEM of 8 experiments).
# (§7) FIG. 6. […] Whole blood (20 μl) from healthy donors (Panel A) and cirrhotic patients (Panel B) were treated in 450 μL PBS containing 0.120 mM calcium), in the absence (control) and presence of R848 or CL097 (0.25-5 μg/ml) for 15 min. Cells were then stimulated with 1 μM fMLP. Results represent the peak of chemiluminescence response induced by fMLP and are expressed in cpm (mean±SEM of 4-6, *: P<0.05).
# as §2
# E coli [6] = assay: Bactericidal activity of neutrophils from cirrhotic patients against E coli; assay type: cell-based, human
# Experimental: as §4, §5
# [7] = test system: purified neutrophils from patients with advanced alcohol cirrhosis; assay: ROS production, luminol-enhanced chemiluminescence, purified patient neutrophils; assay type: cell-based, human
# Experimental: as §6, §2
# cirrhotic BDL rats = assay: In vivo treatment of cirrhotic bile duct ligated (BDL) rats, ROS production in whole blood; parameters: species or system Wistar female rats; conditions: 2.2 mg/kg at day 21, parenteral administration, fMLP 1 μM ex vivo
# Experimental: FIG. 11. In vivo treatment of cirrhotic rats by R848 reverses the deficient ROS production in whole blood. The common bile duct with Wistar female rats was ligated (BDL) under general anesthesia (10 mg Avertin, IP) close to the liver hilum immediately below the bifurcation as described previously (Mohammadi et al, Liver Int. 2009, 29(5):692-700). All surgical procedures were performed under sterile conditions. Blood was collected in Eppendorf tubes (approximately 0.5 ml in 10 mM EDTA) with a 1 inch hypodermic needle inserted into the vessel in the mid ventral surface of the tail. White blood cells were counted using a MS9-5V Analyser Counter (Melet Schloesing Laboratories). At day 21, the cirrhotic BDL rats were treated with R848 (2.2 mg/kg) as reported (McCluskie M J et al, Antiviral Res. 69:77-85, 2006). Control rats were not treated. The production of reactive oxygen species were measured in whole blood at the indicated day. Briefly, ROS production was continueously recorded in a thermostated bioluminometer (Berthold LB940) using 3 blood volumes (0.9, 1.8 and 3.75 μl) incubated at 37° C. in 0.5 ml Hanks balanced salt solution (HBSS) containing 10 μM luminol. Cells were treated with cytochalasin b (0.25 μg/ml) for 5-10 min then stimulated with the bacterial-derived peptide fMet-Leu-he (fMLP, 1 μM). ROS production represents the peak of chemiluminescence response in whole blood. […]
# [8] = test system: whole blood from healthy donors; assay: ROS production, luminol chemiluminescence, whole blood from healthy donors; assay type: cell-based, human; conditions: 0.25-5 μg/ml 15 min, then 1 μM fMLP
# Experimental: as §7, §2
# p22phox = p22phox degradation in healthy PMN treated with purified elastase, western-blot; assay type: cell-based, human; conditions: 1 H at 37° C., 0.5 unit
# Experimental: (§8) FIG. 8. Elastase induces the degradation of gp91phox and p22phox in healthy PMN. (A and B) Western-blot analysis and densitometric quantification of gp91phox and p22phox in healthy PMN treated in the absence or presence of elastase at 0.1 and 0.5 units for 1 hour. (C and D) Western-blot analysis densitometric quantification of gp91phox and […] in healthy PMN treated in the absence or presence of the elastase inhibitor (NEI) at 100 μM for 15 min before stimulation with fMLP (1 μM) for 45 min. (E) Western-blot analysis densitometric quantification of gp91phox in healthy PMN pretreated in the absence or presence of the elastase inhibitor (NEI) at 100 μM for 15 min before incubation for 45 min with a cell-free degranulation supernatant obtained from fMLP (1 μM, 2 min) stimulated PMN. Blots are representative of 4 experiments and densitometric analyses are cumulative and expressed as percentage of the actin level. […] (F) Sensorgrams of the PMN specific binding and dissociation to the anti-gp91phox antibody (7D5) coated to the CM3 sensorchip, analysed with the Biacore X100, as a function of time. […] Data are representative of 3 independent experiments are expressed as resonance unit (RU). (G) Flow cytometry quantification of the Gp91phox expression at the surface of PMN treated or not (Control) with 0.5 unit Elastase at 4° C. […]
# Gp91phox [9] = assay: Flow cytometry of 7D5 antibody binding to gp91phox at the PMN surface after elastase at 4° C.; assay type: cell-based, human; conditions: PMN treated at 4° C. for 1 H, 0.5 unit
# Experimental: as §8
# Gp91phox [10] = assay: Biacore SPR binding of intact PMN to anti-gp91phox 7D5 antibody; parameters: species or system human; conditions: PMN pretreated 1 H at 37° C. (0.5 units) and washed
# Experimental: as §8
# Gp91phox [11] = assay: gp91phox degradation in healthy PMN treated with purified elastase, western-blot; assay type: cell-based, human; conditions: 1 H at 37° C., 0.1 and 0.5 unit
# Experimental: as §8
compound,measurement,setting,value
CCOCc1nc2c([nH]1)c(N)nc1ccccc12 [CL097],expression of Gp91phox (western-blot),Gp91phox [1],restored
same,fMLP-induced superoxide production,[2],potentiated fMLP-induced superoxide production to a level similar of that of neutrophils from healthy donors
same,fMLP-induced bacterial killing,"E coli [3]; control neutrophils, 1 μg/ml 2 min before fMLP 23 min",non significant increase
same,bacterial killing by agonist alone,"E coli [3]; neutrophils from controls, 1 μg/ml",significant bacterial killing
same,optimal production of superoxide,[4],further increased
same,Gp91phox mRNA level,Gp91phox mRNA,increased
same,ROS production in whole blood (stimulation and potentiation properties),[5]; whole blood from patients,also observed
same,bacterial killing by agonist alone,"E coli [6]; neutrophils from cirrhotic patients, 1 μg/ml",significant bacterial killing
same,fMLP-induced bacterial killing,"E coli [6]; patients' neutrophils, 1 μg/ml 2 min before fMLP 23 min",strongly potentiated
same,fMLP-induced ROS production,"[7]; agonist 15 min, then 1 μM fMLP",strongly potentiate
same,ROS production by agonist by itself,"[7]; agonist alone, 15 min",weak production of ROS
"CCOCc1nc2c(N)nc3ccccc3c2n1CC(C)(C)O [R848, 4-amino-2-ethoxymethyl-α,α-dimethyl-1H-imidazol[4,5-c]quinoline-1-ethanol]",ROS production in whole blood of cirrhotic rats,cirrhotic BDL rats,reversed the deficient ROS production
same,"improvement of ROS production, potency compared with CL097",[8],more potent than CL097
same,"improvement of ROS production, potency compared with CL097","[5]; whole blood from cirrhotic patients, 0.25-5 μg/ml 15 min, then 1 μM fMLP",more potent than CL097
"elastase: purified elastase, a serine protease produced by neutrophils",p22phox degradation,p22phox,degradation of p22phox was observed
same,7D5 antibody binding (FACS scan),Gp91phox [9],strongly inhibited
same,PMN binding to 7D5 antibody (SPR),Gp91phox [10],markedly reduced
same,gp91phox degradation,Gp91phox [11],approximately 50%
